Values quoted from earlier work as cited in patent publication US20220142944A1, “TREATMENT OF SKIN DISORDERS WITH TOPICAL TAPINAROF-EGFR INHIBITOR COMPOSITIONS” (Sol-Gel Technologies Ltd., priority 2019, published 2022).

Legend:
[1] = not given; remark: listed apart in the source
[2] = tested on: atopic dermatitis and plaque psoriasis
[3] = 1% tapinarof arm compared with 0.5% arm or vehicle

Structure (SMILES)	solubility	rate of treatment-emergent adverse events ([1]; 93 of 165 with tapinarof, vehicle 34 of 82 [41%])	intensity of treatment-emergent adverse events ([1]; in vivo)	efficacy [2, 3]	onset of action [2, 3]	most frequent adverse events ([2]; topical tapinarof)
C#Cc1cccc(Nc2ncnc3cc(OCCOC)c(OCCOC)cc23)c1 [erlotinib]	poorly soluble					
CC(C)c1c(O)cc(/C=C/c2ccccc2)cc1O [tapinarof, 3,5-dihydroxy-4-isopropyl-trans-stilbene]		56%	mild to moderate	higher efficacy	quicker onset of action	folliculitis and contact dermatitis
